Test results from patent publication US20060030603A1, “Novel aryl urea analogs and use thereof as antibacterial agents” (priority 2004, published 2006).
≈ marks a conversion by molar mass, not a printed value. Where two headings read alike, the source gives them in different places. Blank lines part the entries; values can stand above or below the compound they belong to.

How the values were obtained:
S. aureus ATCC 13709 = test: MIC assay, S. aureus; format: cell-based
Protocol: (§1) In vitro structure/activity relationship (“SAR”) tests were performed according to the following procedure: MIC assays were carried out in a 150 μL volume in duplicate in 96-well clear flat-bottom plates. The bacterial suspension from an overnight culture growth in the appropriate medium was added to a solution of test compound in 0.5% DMSO in water. Final bacterial inoculum was approximate 10^3-10^4 CFU/well. The percentage growth of the bacteria in the test wells relative to that observed for a control well containing no compound was determined by measuring absorbance at 595 nm (A595) after 20-24 h at 37° C. […] The bacterial strains used for the assays include S. aureus ATCC 13709, S. pyogenes ATCC 49399, E. faecalis ATCC 29212, E. faecium ATCC 6569, E. coli ATCC 25922, K. pneumoniae ATCC 13383, P. vulgaris ATCC 8427, P. aeruginosa ATCC 25416. The results of the in vitro SAR tests are in Tables 1-3.

[1] = MIT HUH-7 CC50 48h cytotoxicity; format: cell-based; settings: human, HUH-7 cells; HUH-7, 48h
[2] = Acute Toxicity Study (maximum tolerated dose); format: in vivo; settings: observed seven days
Protocol: Acute Toxicity Study: The maximum tolerated dose for either compound 12e or 14b was determined by administering the compound from 150 mg/kg down to 19 mg/kg given either intraperitoneally (IP) or subcutaneously (subQ). […] On autopsy some of the compound appeared to precipitate at the injection site thereby reducing the effective dose. Via the IP route compound 12e was toxic down to 37 mg/kg and compound 14b was only toxic at 150 mg/kg.

S. pyogenes ATCC 49399 = test: MIC assay, S. pyogenes; format: cell-based; settings: Streptococcus pyogenes, ATCC49399; read-out: MIC S. pyogenes ATCC 49399
Protocol: as §1

S. aureus (ATCC 13709) = test: Mouse Protection Assay (lethal murine model of bacterial infection); format: in vivo, ICR-CD-1 female mice
Protocol: The in vivo tests were preformed according to the following procedure:
Mouse Protection Assay: 10 mice/dose group (ICR-CD-1 female mice 18-20 grams, Charles River) were infected with a lethal dose (10^6 CFU/mouse) of S. aureus (ATCC 13709) suspended in 7.5% hog Gastric Mucin IP. The infected animals were treated at 1 h and 3 h post infection with either compound 12e (lactate salt) from 37 mg/kg down to 2.3 mg/kg or compound 14b (HCl salt) from 75 mg/kg down to 2.3 mg/kg (0.1 mL/mouse). The positive control drug was Vancomycin (Eli Lilly) 1 mg/kg.

E. faecalis ATCC 29212 = test: MIC assay, E. faecalis; format: cell-based; settings: Enterococcus faecalis, ATCC29212; read-out: MIC E. faecalis ATCC 29212
Protocol: as §1

P. aeruginosa ATCC 25416 = test: MIC assay, P. aeruginosa; format: cell-based; settings: Pseudomonas aeruginosa, ATCC25416; read-out: MIC P. aeruginosa ATCC 25416
Protocol: as §1

log P = format: physicochemical
K. pneumoniae ATCC 13383 = test: MIC assay, K. pneumoniae; format: cell-based; settings: Klebsiella pneumoniae, ATCC13383; read-out: MIC K. pneumoniae ATCC 13383
Protocol: as §1

E. coli ATCC 25922 = test: MIC assay, E. coli; format: cell-based; settings: Escherichia coli, ATCC25922; read-out: MIC E. coli ATCC 25922
Protocol: as §1

E. faecium ATCC 6569 = test: MIC assay, E. faecium; format: cell-based; settings: Enterococcus faecium, ATCC6569; read-out: MIC E. faecium ATCC 6569
Protocol: as §1

P. vulgaris ATCC 8427 = test: MIC assay, P. vulgaris; format: cell-based; settings: Proteus vulgaris, ATCC8427; read-out: MIC P. vulgaris ATCC 8427
Protocol: as §1

[3] = Table 2, benzylamino group modified analogs
[4] = Staphylococcus aureus, ATCC13709, Table 2, benzylamino group modified analogs, read-out: MIC S. aureus
[5] = Staphylococcus aureus, ATCC13709, Table 4, read-out: MIC S. aureus ATCC 13709

SMILES: COc1cc(Br)cc(CNCCCNC(=O)Nc2ccc(C(F)(F)F)cc2)c1O [12t]
MIC S. aureus (S. aureus ATCC 13709; [3]): 12 to 25 µM

SMILES: CCOc1ccc(Br)cc1CNCCCNC(=O)Nc1ccc(C(F)(F)F)cc1 [12u]
MIC S. aureus (S. aureus ATCC 13709; [3]): 6 to 12 µM

MIC (S. aureus ATCC 13709; [4]): 3 to 6 µM (≈ 1.66 to 3.32 µg/mL)
SMILES: O=C(NCCCNCCCOc1ccc(Br)cc1Br)Nc1ccc(C(F)(F)F)cc1 [14a, 1-{3-[3-(2,4-Dibromo-phenoxy)-propylamino]-propyl}-3-(4-trifluoromethyl-phenyl)-urea]

SMILES: CN(CCCNC(=O)Nc1ccc(C(F)(F)F)cc1)CCCOc1ccc(Br)cc1Br [14b, 1-(3-{[3-(2,4-Dibromo-phenoxy)-propyl]-methyl-amino}-propyl)-3-(4-trifluoromethyl-phenyl)-urea]
CC50 at 48 h [1]: > 100 µM
toxic dose via the IP route ([2]; intraperitoneal, 150 down to 19 mg/kg tested): 150 mg/kg
survival in the subQ group ([2]; subcutaneous, 150 down to 19 mg/kg, compound appeared to precipitate at injection site): all animals survived at all doses tested
MIC (S. pyogenes ATCC 49399): 3 to 6 µM (≈ 1.7 to 3.4 µg/mL)
MIC (S. aureus ATCC 13709; [4]): 3 to 6 µM (≈ 1.7 to 3.4 µg/mL)
MIC (S. aureus ATCC 13709; [5]): 3 to 6 µM (≈ 1.7 to 3.4 µg/mL)
Mice Alive/Total (S. aureus (ATCC 13709); 2.3 × 2 mg/Kg, 1 h and 3 h post infection, one week, 14b HCl salt, 12e lactate salt): 3/10
Mice Alive/Total (S. aureus (ATCC 13709); 4.7 × 2 mg/Kg, 1 h and 3 h post infection, one week, 14b HCl salt, 12e lactate salt): 4/10
Mice Alive/Total (S. aureus (ATCC 13709); 9.4 × 2 mg/Kg, 1 h and 3 h post infection, one week, 14b HCl salt, 12e lactate salt): 6/10
Mice Alive/Total (S. aureus (ATCC 13709); 18.8 × 2 mg/Kg, 1 h and 3 h post infection, one week, 14b HCl salt, 12e lactate salt): 6/10
Mice Alive/Total (S. aureus (ATCC 13709); 37.5 × 2 mg/Kg, 1 h and 3 h post infection, one week, 14b HCl salt, 12e lactate salt): 7/10
Mice Alive/Total (S. aureus (ATCC 13709); 75 × 2 mg/Kg, treated 1 h and 3 h post infection, observed one week, 14b HCl salt): 4/10
MIC (E. faecalis ATCC 29212): 3 to 6 µM (≈ 1.7 to 3.4 µg/mL)
MIC (P. aeruginosa ATCC 25416): > 100 µM
logP (log P): 5.3
MIC (K. pneumoniae ATCC 13383): 3 to 6 µM (≈ 1.7 to 3.4 µg/mL)
MIC (E. coli ATCC 25922): 12 to 25 µM (≈ 6.81 to 14.2 µg/mL)
MIC (E. faecium ATCC 6569): > 100 µM
MIC (P. vulgaris ATCC 8427): 12 to 25 µM (≈ 6.81 to 14.2 µg/mL)

MIC (S. aureus ATCC 13709; Staphylococcus aureus, ATCC13709, Table 3, heteroaryl analogs, read-out: MIC S. aureus): 3 to 6 µM (≈ 1.26 to 2.52 µg/mL)
SMILES: O=C(NCCCNCc1ccc(Br)[nH]1)Nc1ccc(C(F)(F)F)cc1 [15e, 1-{3-[(5-bromo-1H-pyrrol-2-ylmethyl)-amino]-propyl}-3-(4-trifluoromethyl-phenyl)-urea]

MIC (S. pyogenes ATCC 49399): 1.5 to 3 µM (≈ 0.506 to 1.01 µg/mL)
MIC (S. aureus ATCC 13709; Staphylococcus aureus, ATCC13709, Table 1, thiourea/urea analogs, acetate salts, read-out: MIC S. aureus): 3 to 6 µM
MIC (S. aureus ATCC 13709; [5]): 3 to 6 µM (≈ 1.01 to 2.02 µg/mL)
MIC S. aureus (S. aureus ATCC 13709; [3]): 3 to 6 µM
MIC (E. faecalis ATCC 29212): 3 to 6 µM (≈ 1.01 to 2.02 µg/mL)
MIC (P. aeruginosa ATCC 25416): > 100 µM
MIC (K. pneumoniae ATCC 13383): > 100 µM
MIC (E. coli ATCC 25922): > 100 µM
MIC (E. faecium ATCC 6569): > 100 µM
MIC (P. vulgaris ATCC 8427): 12 to 25 µM (≈ 4.05 to 8.43 µg/mL)
SMILES: CC(=O)NC[C@H]1CN(c2ccc(N3CCOCC3)c(F)c2)C(=O)O1 [Linezolide, reference compound]

SMILES: CN[C@H](CC(C)C)C(=O)N[C@H]1C(=O)N[C@@H](CC(N)=O)C(=O)N[C@H]2C(=O)N[C@H]3C(=O)N[C@H](C(=O)N[C@H](C(=O)O)c4cc(O)cc(O)c4-c4cc3ccc4O)[C@H](O)c3ccc(c(Cl)c3)Oc3cc2cc(c3O[C@@H]2O[C@H](CO)[C@@H](O)[C@H](O)[C@H]2O[C@H]2C[C@](C)(N)[C@H](O)[C@H](C)O2)Oc2ccc(cc2Cl)[C@H]1O [Vancomycin, reference compound]
Mice Alive/Total (S. aureus (ATCC 13709); 1 × 2 mg/Kg, positive control, 1 h and 3 h post infection, one week): 10/10

SMILES: CN(CCCNC(=O)Nc1ccc(C(F)(F)F)cc1)Cc1cc(Br)cc(Br)c1 [compound 13]
MIC (S. aureus ATCC 13709; Table 2, benzylamino group modified analogs, read-out: MIC S. aureus): >100 µM
